Results taken from ChEMBL document CHEMBL4765314, “Rational design and biological evaluation of gemfibrozil modified Xenopus GLP-1 derivatives as long-acting hypoglycemic agents” (Eur J Med Chem, 2020).
Each block holds one molecule with its values, some of them ahead of it. The source made the active and inactive calls. The calls are words filed in the database; no cut-off is given here. Starred links: 1 amine or outer side, 2 acyl side, 3 side chain; linkers in the order of their positions; H or OH if unused. Non-standard residues stand in square brackets, D forms with d. Residues, ends and D or L forms follow the SMILES beside them. Groups on a side chain read outwards from the residue. ξ: configuration not given here. *: point of attachment. X2 = Cc1ccc(C)c(OCCCC(C)(C)C(=O)OCC(=O)NCCCCC(NC(=O)COC(=O)C(C)(C)CCCOc2cc(C)ccc2C)C(=O)*)c1; Glycoloyl(O-gemfibrozoyl) = Cc1ccc(C)c(OCCCC(C)(C)C(=O)OCC(=O)*)c1; γGlu = O=C(O)[C@H](CCC(=O)[*:2])N[*:1]; Thr(3ξ) = CC(O)[C@H](N)C(=O)O; Aun = NCCCCCCCCCCC(=O)O; ξK = NCCCCC(N)C(=O)O

Tests used:
[1] = biological target: Albumin (Homo sapiens, UniProt P02768); experiment: Binding affinity to human serum albumin assessed as retention factor by HPAC method; assay type: ADME
Albumin, sequence (P02768 whole entry): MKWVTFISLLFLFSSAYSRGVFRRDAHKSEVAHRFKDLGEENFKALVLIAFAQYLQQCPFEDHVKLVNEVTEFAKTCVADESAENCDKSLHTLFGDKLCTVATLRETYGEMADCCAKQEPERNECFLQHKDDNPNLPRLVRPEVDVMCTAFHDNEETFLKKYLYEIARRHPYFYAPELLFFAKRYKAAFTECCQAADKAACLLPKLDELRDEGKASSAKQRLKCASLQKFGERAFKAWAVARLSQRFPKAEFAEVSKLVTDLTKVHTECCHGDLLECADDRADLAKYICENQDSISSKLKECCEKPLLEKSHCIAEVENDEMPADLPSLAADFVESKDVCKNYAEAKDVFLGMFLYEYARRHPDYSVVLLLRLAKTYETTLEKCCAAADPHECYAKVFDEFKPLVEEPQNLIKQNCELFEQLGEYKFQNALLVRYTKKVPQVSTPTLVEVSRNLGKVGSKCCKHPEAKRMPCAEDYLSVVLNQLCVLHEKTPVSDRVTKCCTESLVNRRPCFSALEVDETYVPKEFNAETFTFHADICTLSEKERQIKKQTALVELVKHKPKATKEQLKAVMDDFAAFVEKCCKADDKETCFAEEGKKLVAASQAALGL

[2] = biological target: Glucagon-like peptide 1 receptor (Homo sapiens, UniProt P43220); experiment: Agonist activity at human GLP-1R expressed in HEK293 cells assessed as stimulation of cAMP accumulation incubated for 60 mins by HTRF assay; assay type: functional, cell-based
Glucagon-like peptide 1 receptor, sequence (P43220 whole entry): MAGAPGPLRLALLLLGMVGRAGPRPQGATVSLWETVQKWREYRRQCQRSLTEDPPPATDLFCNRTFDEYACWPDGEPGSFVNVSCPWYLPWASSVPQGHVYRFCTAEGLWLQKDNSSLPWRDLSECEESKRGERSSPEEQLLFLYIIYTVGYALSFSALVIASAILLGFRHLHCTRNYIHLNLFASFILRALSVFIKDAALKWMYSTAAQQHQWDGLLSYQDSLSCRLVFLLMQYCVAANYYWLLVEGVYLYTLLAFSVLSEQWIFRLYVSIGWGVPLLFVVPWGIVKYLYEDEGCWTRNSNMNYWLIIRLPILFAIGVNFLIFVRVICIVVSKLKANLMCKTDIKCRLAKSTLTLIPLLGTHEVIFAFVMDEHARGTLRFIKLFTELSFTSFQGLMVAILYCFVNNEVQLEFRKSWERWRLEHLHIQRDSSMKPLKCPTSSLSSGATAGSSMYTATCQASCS

[3] = Stability in Sprague-Dawley rat plasma assessed as half life at 1000 ng/ml measured up to 48 hrs under shaking condition by LC-MS/MS analysis; assay type: ADME, cell-free
[4] = system: Mus musculus; experiment: Hypoglycemic activity in non-fasted db/db […] mouse assessed as reduction in blood glucose level at 25 nmol/kg, ip dosed 30 mins before glucose challenge measured up to 120 mins by OGTT method; assay type: functional, organism-based
[5] = system: Mus musculus; experiment: Hypoglycemic activity in 12 hrs fasted ICR mouse assessed as reduction in blood glucose level at 25 nmol/kg, ip dosed 30 mins before glucose challenge measured up to 120 mins by OGTT method; assay type: functional, organism-based; details: time 150.0 min
[6] = Tmax in Sprague-Dawley rat at 50 nmol/kg, sc measured up to 24 hrs by LC-MS/MS analysis; assay type: ADME, organism-based; details: in vivo
[7] = Half life in Sprague-Dawley rat at 50 nmol/kg, sc measured up to 24 hrs by LC-MS/MS analysis; assay type: ADME, organism-based; details: in vivo
[8] = Renal toxicity in ICR mouse assessed as effect on serum creatinine level at 100 nmol/kg, sc administered once daily for 2 weeks; assay type: organism-based; details: in vivo, 336 h
[9] = Renal toxicity in ICR mouse assessed as effect on blood urea nitrogen level at 100 nmol/kg, sc administered once daily for 2 weeks; assay type: organism-based; details: in vivo, 336 h
[10] = Hepatotoxicity in ICR mouse assessed as effect on alanine aminotransferase level at 100 nmol/kg, sc administered once daily for 2 weeks; assay type: toxicity, organism-based; details: in vivo, 336 h
[11] = Hepatotoxicity in ICR mouse assessed as effect on aspartate aminotransferase level at 100 nmol/kg, sc administered once daily for 2 weeks; assay type: toxicity, organism-based; details: in vivo, 336 h
[12] = system: Mus musculus; experiment: Improvement in glucose tolerance in db/db mouse assessed as time for superior hypoglycemic effect by measuring glucose AUC at 25 nmol/kg, sc administered twice daily for 42 days by OGTT; assay type: functional, organism-based; details: time 42.0 day
[13] = system: Mus musculus; experiment: Anorectic effect in normal chow diet fed C57BL/6 mouse assessed as reduction in food intake at 25 nmol/kg, sc administered every two for 21 days; assay type: functional, organism-based; details: time 21.0 day
[14] = system: Mus musculus; experiment: Improvement in glucose tolerance in db/db mouse at 25 nmol/kg, sc administered every 2 days for 42 days by OGTT; assay type: functional, organism-based; details: time 42.0 day
[15] = system: Mus musculus; experiment: Improvement in glucose tolerance in standard chow diet fed C57BL/6 mouse at 25 nmol/kg, sc administered every 2 days for 21 days; assay type: functional, organism-based; details: time 21.0 day
[16] = system: Mus musculus; experiment: Increase in serum HDL level in C57BL/6 mouse model of high-fat diet induced obesity at 25 nmol/kg, sc administered every two days for 21 days; assay type: functional, organism-based; details: time 21.0 day
[17] = system: Mus musculus; experiment: Reduction in serum triglyceride in C57BL/6 mouse model of high-fat diet induced obesity at 25 nmol/kg, sc administered every two days for 21 days; assay type: functional, organism-based; details: time 21.0 day
[18] = system: Mus musculus; experiment: Inhibition of solid-phase gastric emptying in 12 hrs fasted ICR mouse assessed reduction in gastric emptying rate at 25 nmol/kg, ip allowed for food intake 1 hrs and measured after 4 hrs […]; assay type: functional; design: scale not given: the % may be the effect or the level left
[19] = system: Mus musculus; experiment: Reduction in HbA1c level in db/db mouse at 25 nmol/kg, sc administered every two days for 42 days by OGTT; assay type: functional, organism-based; details: time 42.0 day
[20] = system: Mus musculus; experiment: Effect in normal chow diet fed C57BL/6 mouse assessed as reduction in body weight increase at 25 nmol/kg, sc administered every two days for 21 days (reference value: 10.8%); assay type: functional, organism-based; design: scale not given: the % may be the effect or the level left; details: time 21.0 day
[21] = system: Mus musculus; experiment: Reduction in serum total cholesterol in C57BL/6 mouse model of high-fat diet induced obesity at 25 nmol/kg, sc administered every two days for 21 days; assay type: functional, organism-based; details: time 21.0 day
[22] = system: Mus musculus; experiment: Inhibition of fat mass gain in normal chow diet fed C57BL/6 mouse at 25 nmol/kg, sc administered every two days for 21 days; assay type: functional, organism-based; details: time 21.0 day
[23] = system: Mus musculus; experiment: Reduction in body weight in C57BL/6 mouse model of diet induced obesity at 25 nmol/kg, sc administered every two days for 21 days relative to control; assay type: functional, organism-based; design: scale not given: the % may be the effect or the level left; details: time 21.0 day
[24] = system: Mus musculus; experiment: Reduction in serum LDL level in C57BL/6 mouse model of high-fat diet induced obesity at 25 nmol/kg, sc administered every two days for 21 days; assay type: functional, organism-based; details: time 21.0 day
[25] = system: Mus musculus; experiment: Hypoglycemic activity in normal chow diet fed C57BL/6 mouse assessed as fasting blood glucose at 25 nmol/kg, sc administered every two for 21 days; assay type: functional, organism-based; details: time 21.0 day
[26] = system: Mus musculus; experiment: Reduction in body fat content in C57BL/6 mouse model of high-fat diet induced obesity at 25 nmol/kg, sc administered every two days for 21 days relative to control; assay type: functional, organism-based; design: scale not given: the % may be the effect or the level left; details: time 21.0 day
[27] = system: Mus musculus; experiment: Hypoglycemic activity in 16 hrs fasted db/db mouse assessed as reduction in blood glucose level at 25 nmol/kg, ip treated 30 mins before glucose challenge and measured at 0 to 24 hrs by multiple OGTT; assay type: functional, organism-based; details: time 1470.0 min

Molecule: CC[C@H](C)[C@H](NC(=O)[C@H](CC(C)C)NC(=O)[C@H](Cc1c[nH]c2ccccc12)NC(=O)[C@H](CCC(=O)O)NC(=O)[C@@H](NC(=O)[C@H](Cc1ccccc1)NC(=O)[C@H](CCC(=O)O)NC(=O)C(CCCCNC(=O)CC[C@H](NC(=O)C(CCCCNC(=O)COC(=O)C(C)(C)CCCOc1cc(C)ccc1C)NC(=O)COC(=O)C(C)(C)CCCOc1cc(C)ccc1C)C(=O)O)NC(=O)[C@H](C)NC(=O)[C@H](C)NC(=O)[C@H](CCC(=O)O)NC(=O)[C@H](CCC(=O)O)NC(=O)[C@H](CCC(=O)O)NC(=O)[C@H](CC(C)C)NC(=O)[C@H](Cc1ccc(O)cc1)NC(=O)[C@H](CCC(=O)O)NC(=O)[C@@H](NC(=O)[C@@H](NC(=O)[C@H](CC(=O)O)NC(=O)[C@H](CC(N)=O)NC(=O)[C@@H](NC(=O)[C@H](Cc1ccc(O)cc1)NC(=O)[C@@H](NC(=O)CNC(=O)[C@H](CCC(=O)O)NC(=O)CNC(=O)[C@@H](N)Cc1cnc[nH]1)[C@@H](C)O)[C@@H](C)O)C(C)C)[C@@H](C)O)[C@@H](C)CC)C(=O)N[C@@H](CCCCN)C(=O)NCC(=O)N[C@@H](CCCCN)C(=O)N1CCC[C@H]1C(=O)N[C@@H](CO)C(=O)N[C@@H](CO)C(=O)NCC(=O)N[C@@H](C)C(=O)N1CCC[C@H]1C(=O)N1CCC[C@H]1C(=O)N1CCC[C@H]1C(=O)N[C@@H](C)C(=O)O (stereo partly specified) (H-HGEGTYTNDVTEYLEEEAA[ξK]([γGlu-X2])EFIEWLIKGKPSSGAPPPA-OH)
K [1]: 11.8 | EC50 [2]: 0.11 nM | half-life at 1000 ng/ml [3]: 30.4 h | Activity [4]: Active | Activity [5]: Active

Molecule: CC[C@H](C)[C@H](NC(=O)[C@H](CC(C)C)NC(=O)[C@H](Cc1c[nH]c2ccccc12)NC(=O)[C@H](CCC(=O)O)NC(=O)[C@@H](NC(=O)[C@H](Cc1ccccc1)NC(=O)[C@H](CCC(=O)O)NC(=O)[C@H](CCCCNC(=O)CC[C@H](NC(=O)CCCCCCCCCCNC(=O)COC(=O)C(C)(C)CCCOc1cc(C)ccc1C)C(=O)O)NC(=O)[C@H](C)NC(=O)[C@H](C)NC(=O)[C@H](CCC(=O)O)NC(=O)[C@H](CCC(=O)O)NC(=O)[C@H](CCC(=O)O)NC(=O)[C@H](CC(C)C)NC(=O)[C@H](Cc1ccc(O)cc1)NC(=O)[C@H](CCC(=O)O)NC(=O)[C@@H](NC(=O)[C@@H](NC(=O)[C@H](CC(=O)O)NC(=O)[C@H](CC(N)=O)NC(=O)[C@@H](NC(=O)[C@H](Cc1ccc(O)cc1)NC(=O)[C@@H](NC(=O)CNC(=O)[C@H](CCC(=O)O)NC(=O)CNC(=O)[C@@H](N)Cc1cnc[nH]1)C(C)O)C(C)O)C(C)C)[C@@H](C)O)[C@@H](C)CC)C(=O)N[C@@H](CCCCN)C(=O)NCC(=O)N[C@@H](CCCCN)C(=O)N1CCC[C@H]1C(=O)N[C@@H](CO)C(=O)N[C@@H](CO)C(=O)NCC(=O)N[C@@H](C)C(=O)N1CCC[C@H]1C(=O)N1CCC[C@H]1C(=O)N1CCC[C@H]1C(=O)N[C@@H](CO)C(=O)O (stereo partly drawn) (H-HGEG[Thr(3ξ)]Y[Thr(3ξ)]NDVTEYLEEEAAK([γGlu-Aun-Glycoloyl(O-gemfibrozoyl)])EFIEWLIKGKPSSGAPPPS-OH)
K [1]: 7.6 | Tmax [6]: 2.7 h | half-life [7]: 3.7 h | EC50 [2]: 0.14 nM | half-life at 1000 ng/ml [3]: 21.4 h | Activity [5]: Active

K [1]: 11.2 | EC50 [2]: 0.091 nM | half-life at 1000 ng/ml [3]: 29.5 h
Molecule: H-HGEGTYTNDVTEYLEEEAA[ξK]([γGlu-X2])EFIEWLIKGKPSSGAPPSKKKKKK-OH
Activity [4]: Active | Activity [5]: Active

Molecule: SEMAGLUTIDE [listing 1 of 2 here]
Activity [8]: Non-Toxic | Activity [9]: Non-Toxic | Activity [10]: Non-Toxic | Activity [11]: Non-Toxic

Molecule: SEMAGLUTIDE [listing 2 of 2 here]
TIME [12]: 1680 h | Activity [13]: Active | Activity [14]: Active | Activity [15]: inactive | Activity [16]: inactive | Activity [17]: Active | Activity [18]: 52% | Activity [19]: Active | Activity [20]: 6.7% | Activity [21]: Active | Activity [22]: Active | Activity [23]: 13.4% | Activity [24]: Active | Activity [25]: inactive | Activity [26]: 25.5% | Activity [27]: Active
